One series is described as follows: Thermodynamic solubility. The class given is physicochemical. The following applies: thermodynamic from solid, Milli-Q water, 37 °C. As to the method: Thermodynamic solubility: Test compound (3 mg) is accurately weighed into a Micronics tube. Extra tubes for each control compound, Warfarin (high solubility control) and Cinnarizine (low solubility control) were also accurately weighed. To each tube is added 1 mL of Milli‐Q water. All samples are vortexed for 20 s and placed in a bench top incubator shaker set at 1300 rpm at 37 °C for 5 h. After the incubation, samples are centrifuged at 10,000 rpm for 3 min. 100 μL aliquots of the supernatant in duplicate were placed in a 96‐well plate. All samples, calibration standards and QC samples are analyzed using a validated HPLC method on the Dionex Ultramate 3000 HPLC system. The concentration determined from the supernatant was then reported as the solubility of each compound in μg/mL.

A further series deals with HCT116 cells. The series can be described thus: HCT116 cell growth and viability. The following applies: at the tested concentrations (data not shown). The class given is cell-based. An excerpt:
We have previously shown that knockdown of KLK6 reduces migration and invasion of HCT116 cells in vitro.13 In order to test whether this effect could be recapitulated with small molecule KLK6 inhibitors, we measured the ability of 32 to reduce invasion of HCT116 cells. […] HCT116 cell growth and viability was not altered upon treatment with compounds 9 and 32 at the tested concentrations (data not shown).

Another series has as its target T1, Human thrombin (Homo sapiens, UniProt P00734).
T1 construct: Human thrombin was purchased from Biopur; purchased Biopur
The series can be described thus: Thrombin enzyme inhibition assay. The following applies: read-out: Thrombin pIC50 (converted). The class given is biochemical. How it is done: Human thrombin was purchased from Biopur. Human trypsin was purchased from Polymun Scientific. Human Factor Xa was purchased from Enzo Life Sciences. Thrombin (20 nM), trypsin (0.000015 %) or Factor Xa (10 nM) were assayed in a similar manner to the KLKs but were incubated with compound for 20 min at room temperature in assay buffer (50 mM Tris HCl, pH 7.6, 100 mM NaCl, 1 mg/ml CHAPS, 0.05 % bovine serum albumin (BSA), 1 mM dithiothreitol (DTT)) before the addition of 5 μM, 2.5 μM or 1.5 μM Rhodamine 110 substrate (Cambridge bioscience ltd) respectively. Fluorescence intensity was then read at ex/em 485/535 following incubation for 1 h at room temperature (thrombin and factor Xa) or 20 min (trypsin).

This is an account of results in PMC7004151, “Synthesis and Structure‐Activity Relationships of N‐(4‐Benzamidino)‐Oxazolidinones: Potent and Selective Inhibitors of Kallikrein‐Related Peptidase 6” (Chemmedchem, 2019).

Molecules are shown by their SMILES. In brackets after ≈: the same amount, converted by molar mass.

The term thermodynamic solubility denotes solubility found after equilibrating the solid with the medium.

In “Thermodynamic solubility”, `CC[C@H](NC(=O)[C@H]1CN(c2ccc(C(=N)N)cc2)C(=O)O1)c1cccc2ccccc12` [Compound 32, (5R)‐3‐(4‐carbamimidoylphenyl)‐N‐((S)‐1‐(naphthalen‐1‐yl)propyl)‐2‐oxooxazolidine‐5‐carboxamide] had a solubility (thermodynamic) at 5 h of 2300 µM (≈ 958 µg/mL). Besides, the “HCT116 cell growth and viability” value with HCT116 cells is listed as “not altered”. Moreover, the IC50 at Human thrombin is > 20 µM.
